Test results reported in publication PMC4547393, “Resin-acid derivatives as potent electrostatic openers of voltage-gated K channels and suppressors of neuronal excitability” (Scientific Reports, 2015).

Assays:
Type in all cases: cell-based
3R Shaker K channel [1] = target: T1, 3R Shaker K channel (Drosophila melanogaster, UniProt P08510, DEL6-46/M356R/A359R); assay: two-electrode voltage clamp in Xenopus oocytes, G(V) shift at […]
T1 construct: gene Sh

Shaker K channel (WT) [2] = target: T2, Shaker K channel (WT) (Drosophila melanogaster, UniProt P08510, DEL6-46); assay: as above
T2 construct: gene Sh
T2 sequence (P08510 with tags, fused parts or gaps DEL6-46): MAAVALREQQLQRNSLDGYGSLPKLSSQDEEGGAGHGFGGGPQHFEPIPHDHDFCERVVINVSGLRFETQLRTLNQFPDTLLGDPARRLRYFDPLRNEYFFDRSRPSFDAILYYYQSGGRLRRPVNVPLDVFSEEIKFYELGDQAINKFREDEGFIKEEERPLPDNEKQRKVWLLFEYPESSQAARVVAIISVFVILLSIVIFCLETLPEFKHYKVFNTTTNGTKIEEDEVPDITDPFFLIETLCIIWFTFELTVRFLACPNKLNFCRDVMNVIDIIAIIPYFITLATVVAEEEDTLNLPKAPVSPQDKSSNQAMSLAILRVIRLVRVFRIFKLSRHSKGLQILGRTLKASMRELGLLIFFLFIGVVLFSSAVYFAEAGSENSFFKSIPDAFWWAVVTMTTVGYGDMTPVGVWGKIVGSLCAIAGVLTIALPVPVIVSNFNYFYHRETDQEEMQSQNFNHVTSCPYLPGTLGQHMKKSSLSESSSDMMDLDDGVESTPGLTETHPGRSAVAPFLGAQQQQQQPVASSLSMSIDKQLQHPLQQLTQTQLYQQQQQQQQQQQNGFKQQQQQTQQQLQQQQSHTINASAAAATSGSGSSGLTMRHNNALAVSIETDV

3R Shaker K channel [3] = target: T3, 3R Shaker K channel (Drosophila melanogaster, UniProt P08510, A359R/DEL6-46/M356R); assay: two-electrode voltage clamp in Xenopus oocytes, G(V) shift; also patch clamp in CHO-K1 cells
T3 construct: gene Sh
T3 sequence (P08510 with tags, fused parts or gaps DEL6-46/M356R/A359R): as the sequence (P08510 with tags, fused parts or gaps DEL6-46) above, with M315R, A318R counted along it

3R Shaker K channel [4] = target: T3, 3R Shaker K channel; assay: two-electrode voltage clamp in Xenopus oocytes, G(V) shift
Shaker K channel (WT) [5] = target: T2, Shaker K channel (WT); assay: two-electrode voltage clamp in Xenopus oocytes, G(V) shift and pH dependence at […]

T1 sequence (P08510 with tags, fused parts or gaps DEL6-46/M356R/A359R): as the sequence (P08510 with tags, fused parts or gaps DEL6-46) above, with M315R, A318R counted along it

## CC(C)C1=CC2=CC[C@@H]3[C@](C)(CCC[C@@]3(C)C(=O)O)[C@H]2CC1 [compound 3, abietic acid]
3R Shaker K channel [1]
  two-electrode voltage clamp in Xenopus oocytes, G(V) shift at 100 μM: −11.2 ± 2 mV

## C=C[C@@]1(C)CC[C@H]2C(=CC[C@@H]3[C@]2(C)CCC[C@@]3(C)C(=O)O)C1 [compound 2, isopimaric acid]
3R Shaker K channel [1]
  two-electrode voltage clamp in Xenopus oocytes, G(V) shift at 100 μM: −15.9 ± 1.8 mV

## C[C@@]1(C(=O)O)CCC[C@]2(C)c3cc(Cl)c(Cl)c(Cl)c3CC[C@@H]12 [compound 77, Compound 77]
Shaker K channel (WT) [2]
  two-electrode voltage clamp in Xenopus oocytes, G(V) shift at 100 μM: −21.2 mV
3R Shaker K channel [3]
  EC50: 37 µM

## CC(C)c1ccc2c(c1)CC[C@H]1[C@](C)(C(=O)O)CCC[C@]21C [compound 4, dehydroabietic acid]
Shaker K channel (WT) [2]
  two-electrode voltage clamp in Xenopus oocytes, G(V) shift at 100 μM: −2.3 mV
3R Shaker K channel [4]
  EC50: 89 µM

## CON=C1C[C@H]2[C@](C)(C(=O)O)CCC[C@]2(C)c2cc(Br)c(C(C)C)cc21 [compound 33, Compound 33]
Shaker K channel (WT) [5]
  two-electrode voltage clamp in Xenopus oocytes, G(V) shift and pH dependence at: For all three compounds, the induced shifts are smaller on Shaker WT compared to Shaker 3R K channels
3R Shaker K channel [3]
  EC50: 37 µM

## C=CCON=C1C[C@H]2[C@](C)(C(=O)O)CCC[C@]2(C)c2ccc(C(C)C)cc21 [compound 19, Compound 19]
3R Shaker K channel [1]
  two-electrode voltage clamp in Xenopus oocytes, G(V) shift at 100 μM: −17.8 ± 1.9 mV
